Results from EP0845210A1, “New herbicidal compositions” (RHONE-POULENC AGRICULTURE LTD., priority 1994, dated 1996).

Tests used:
Assay type in all cases: in vivo
Amaranthus retroflexus = test: Procedure A: pre-emergence glasshouse pot test, growth reduction assessed two weeks after treatment; conditions: Table A2
Text: (§1) Seed of the various species of broad-leaf or grass weeds were sown in unsterilised clay loam soil in 7 centimetre by 7 centimetre plastic plant pots. The pots were watered and allowed to drain. The soil surface was then sprayed with ranges of concentrations of either the individual herbicide or mixtures of two herbicides in various proportions, dissolved in a 50:50 by volume solution of acetone and water, using a track sprayer set to deliver the equivalent of 290 l/ha. All herbicides were used as unformulated technical materials except dimethenamid, which was used as the commercial formulation "Frontiere" (trade mark), a flowable containing 900g/l active ingredient; and alachlor, which was used as "Lasso" (trade mark), an emulsifiable concentrate formulation containing 480g/l active ingredient.
(§2) Treated pots were placed at random in four replicate blocks per treatment for each plant species. The pots were held, in a glasshouse, standing on moist capillary matting, under lights and with overhead watering twice daily.
(§3) Two weeks after treatment the percent reduction in plant growth, compared to an untreated control, was assessed.
(§4) Mean percent reduction in plant growth was calculated for each treatment. Dose/mean response was plotted on Log concentration/Probability graph paper, and lines fitted by eye. For herbicide mixtures a dose/response line for the first herbicide was drawn for each dose rate of the second herbicide and a dose/response line for the second herbicide was drawn for each dose rate of the first herbicide. The doses representing a 90% reduction in plant growth (LD90's) were read from these lines and plotted on graphs whose axes were dose rates of the two herbicides. The line joining these points is an Isobole i.e. a line joining points (mixtures) of equal activity, as described by P.M.L. Tammes, Neth. J. Plant Path. 70 (1964) : 73-80. A line was also drawn joining the LD90's of the individual components of the mixture. This line represents the theoretical isobole if the effect of the two components is additive i.e. there is no interaction between them. Isoboles falling below this line indicate synergy between the components while lines lying above it indicate antagonism.
(§5) In the tables that follow 'dose' represents the dose rate in grammes per hectare of the active ingredient used; and the figures for the weed control are percentages reduction in growth when compared with the untreated controls.

Echinochloa crus-galli = test: as above
Text: as §1, §2, §3, §4, §5

Digitaria sanguinalis = test: as above
Text: as §1, §2, §3, §4, §5

Setaria viridis = test: as above; conditions: Table A1
Text: as §1, §2, §3, §4, §5

maize (Zea mays) = test: Procedure D: pre-emergence field trial (Volga, Brookings), crop phytotoxicity about 26 days after treatment; conditions: A 37.5 g/ha alone
Experimental: (§6) The following experiments were carried out pre-emergence of the weed species. Compound A, formulated as a wettable dispersible granule as described in Example 1 herebelow (750g per kilogram) and each acetochlor (used as the commercially available formulation "Harness" (trade mark), an emulsifiable concentrate containing 960g of acetochlor per kilogram, and which also contains the safening agent flurazole, metolachlor (used as the commercially available formulation "Duelor" (trade mark), an emulsifiable concentrate emulsifiable concentrate containing 960g of metolachlor per kilogram), alachlor (used as the commercially available formulation "Lasso" (trade mark), an emulsifiable concentrate containing 480g of alachlor per kilogram) and dimethenamid (used as the commercially available formulation "Frontiere" (trade mark), a flowable containing 900g/l active ingerident) were dissolved in water and sprayed at a volume rate of 187 litres/hectare on various test plots (10 square meters in area) either alone or in mixtures. The soil was a clay-loam, with a pH of 7, the experiments being conducted in June in Volga, Brookings, U.S.A. The various weed and crop species were drill sown and the various compositions were applied on the same day after drilling. Three replicates were performed and the efficacy of the various mixtures were determined by visual assessment of the percentage phytotoxicity in comparison with an untreated control. Assessment was made about 26 days after treatment. In the Tables which follow the dose is expressed in grammes per hectare and the figures in brackets represent the expected results according to the Colby formula.

Helianthus annuus = test: Procedure D: pre-emergence field trial (Volga, Brookings), visual assessment about 26 days after treatment; conditions: A 37.5 g/ha alone
Experimental: as §6

Panicum miliaceum = test: as above; conditions: A 375 g/ha alone
Experimental: as §6

Abutilon theophrasti = test: as above; conditions: A 37.5 g/ha alone
Experimental: as §6

CS(=O)(=O)c1cc(C(F)(F)F)ccc1C(=O)c1cnoc1C1CC1 [Compound A, 5-cyclopropyl-4-(2-methylsulphonyl-4-trifluoromethyl)benzoylisoxazole]
percent reduction in plant growth (Amaranthus retroflexus; A 1 g/ha alone): 12.5%
percent reduction in plant growth (Amaranthus retroflexus; A 2 g/ha alone): 51.25%
percent reduction in plant growth (Amaranthus retroflexus; A 4 g/ha alone): 12.5%
percent reduction in plant growth (Amaranthus retroflexus; A 8 g/ha alone): 87.5%
percent reduction in plant growth (Amaranthus retroflexus; A 16 g/ha alone): 92.5%
percent reduction in plant growth (Amaranthus retroflexus; A 32 g/ha alone): 99.75%
percent reduction in plant growth (Amaranthus retroflexus; A 64 g/ha alone): 99.75%
percent reduction in plant growth (Echinochloa crus-galli; A 1 g/ha alone, Table B2): 12.5%
percent reduction in plant growth (Echinochloa crus-galli; A 1 g/ha alone, Table D2): 11.25%
percent reduction in plant growth (Echinochloa crus-galli; A 2 g/ha alone, Table B2): 6.25%
percent reduction in plant growth (Echinochloa crus-galli; A 2 g/ha alone, Table C2): 3.75%
percent reduction in plant growth (Echinochloa crus-galli; A 2 g/ha alone, Table D2): 7.5%
percent reduction in plant growth (Echinochloa crus-galli; A 4 g/ha alone, Table B2): 1.25%
percent reduction in plant growth (Echinochloa crus-galli; A 4 g/ha alone, Table C2): 2.5%
percent reduction in plant growth (Echinochloa crus-galli; A 4 g/ha alone, Table D2): 15%
percent reduction in plant growth (Echinochloa crus-galli; A 8 g/ha alone, Table B2): 61.25%
percent reduction in plant growth (Echinochloa crus-galli; A 8 g/ha alone, Table C2): 32.5%
percent reduction in plant growth (Echinochloa crus-galli; A 8 g/ha alone, Table D2): 15%
percent reduction in plant growth (Echinochloa crus-galli; A 16 g/ha alone, Table B2): 71.25%
percent reduction in plant growth (Echinochloa crus-galli; A 16 g/ha alone, Table C2): 60%
percent reduction in plant growth (Echinochloa crus-galli; A 16 g/ha alone, Table D2): 62.5%
percent reduction in plant growth (Echinochloa crus-galli; A 32 g/ha alone, Table B2): 75%
percent reduction in plant growth (Echinochloa crus-galli; A 32 g/ha alone, Table C2): 90%
percent reduction in plant growth (Echinochloa crus-galli; A 32 g/ha alone, Table D2): 86%
percent reduction in plant growth (Echinochloa crus-galli; A 64 g/ha alone, Table B2): 93.5%
percent reduction in plant growth (Echinochloa crus-galli; A 64 g/ha alone, Table C2): 97%
percent reduction in plant growth (Echinochloa crus-galli; A 64 g/ha alone, Table D2): 87.5%
percent reduction in plant growth (Echinochloa crus-galli; A 128 g/ha alone, Table B2): 93.75%
percent reduction in plant growth (Echinochloa crus-galli; A 128 g/ha alone, Table C2): 99.75%
percent reduction in plant growth (Echinochloa crus-galli; A 128 g/ha alone, Table D2): 99.5%
percent reduction in plant growth (Echinochloa crus-galli; A 256 g/ha alone, Table D2): 92.5%
percent reduction in plant growth (Digitaria sanguinalis; A 1 g/ha alone, Table B1): 18.75%
percent reduction in plant growth (Digitaria sanguinalis; A 1 g/ha alone, Table D1): 0%
percent reduction in plant growth (Digitaria sanguinalis; A 2 g/ha alone, Table B1): 20%
percent reduction in plant growth (Digitaria sanguinalis; A 2 g/ha alone, Table C1): 20%
percent reduction in plant growth (Digitaria sanguinalis; A 2 g/ha alone, Table D1): 12.5%
percent reduction in plant growth (Digitaria sanguinalis; A 4 g/ha alone, Table B1): 33.75%
percent reduction in plant growth (Digitaria sanguinalis; A 4 g/ha alone, Table C1): 40%
percent reduction in plant growth (Digitaria sanguinalis; A 4 g/ha alone, Table D1): 17.5%
percent reduction in plant growth (Digitaria sanguinalis; A 8 g/ha alone, Table B1): 67.5%
percent reduction in plant growth (Digitaria sanguinalis; A 8 g/ha alone, Table C1): 7.5%
percent reduction in plant growth (Digitaria sanguinalis; A 8 g/ha alone, Table D1): 61.25%
percent reduction in plant growth (Digitaria sanguinalis; A 16 g/ha alone, Table B1): 50%
percent reduction in plant growth (Digitaria sanguinalis; A 16 g/ha alone, Table C1): 50%
percent reduction in plant growth (Digitaria sanguinalis; A 16 g/ha alone, Table D1): 67.5%
percent reduction in plant growth (Digitaria sanguinalis; A 32 g/ha alone, Table B1): 73.5%
percent reduction in plant growth (Digitaria sanguinalis; A 32 g/ha alone, Table C1): 74.75%
percent reduction in plant growth (Digitaria sanguinalis; A 32 g/ha alone, Table D1): 66%
percent reduction in plant growth (Digitaria sanguinalis; A 64 g/ha alone, Table B1): 87.5%
percent reduction in plant growth (Digitaria sanguinalis; A 64 g/ha alone, Table C1): 80%
percent reduction in plant growth (Digitaria sanguinalis; A 64 g/ha alone, Table D1): 95%
percent reduction in plant growth (Digitaria sanguinalis; A 128 g/ha alone, Table C1): 93.5%
percent reduction in plant growth (Digitaria sanguinalis; A 128 g/ha alone, Table D1): 76.25%
percent reduction in plant growth (Digitaria sanguinalis; A 256 g/ha alone, Table D1): 98.75%
percent reduction in plant growth (Setaria viridis; A 0.5 g/ha alone): 15%
percent reduction in plant growth (Setaria viridis; A 1 g/ha alone): 5%
percent reduction in plant growth (Setaria viridis; A 2 g/ha alone): 47.5%
percent reduction in plant growth (Setaria viridis; A 4 g/ha alone): 33.75%
percent reduction in plant growth (Setaria viridis; A 8 g/ha alone): 38.75%
percent reduction in plant growth (Setaria viridis; A 16 g/ha alone): 53.75%
percent reduction in plant growth (Setaria viridis; A 32 g/ha alone): 70%
percent reduction in plant growth (Setaria viridis; A 64 g/ha alone): 76%
percent reduction in plant growth (Setaria viridis; A 128 g/ha alone): 88.75%
percentage phytotoxicity (maize (Zea mays)): 0%
percentage phytotoxicity (Helianthus annuus): 18%
percentage phytotoxicity (Panicum miliaceum): 65%
percentage phytotoxicity (Abutilon theophrasti): 93%
